Laboratory results from the supplement of paper PMC10307832.

Legend:
Test in all cases: relative viability (nuclei count vs DMSO), 5 days (fraction); higher = more cells survive
AT9283 + Pemetrexed = compound: O=C(Nc1c[nH]nc1-c1nc2ccc(CN3CCOCC3)cc2[nH]1)NC1CC1 [AT9283] + Nc1nc2[nH]cc(CCc3ccc(C(=O)N[C@@H](CCC(=O)O)C(=O)O)cc3)c2c(=O)[nH]1 [Pemetrexed] (partner 0.2 µM)
Procedure, shortened: (§1)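 Each reported value is a median over duplicate plates. It expresses relative viability: treated-well nuclei count divided by vehicle-well nuclei count. Lung cancer cell lines in 1536-well plates were dosed by pin tool a day after seeding, alone with one drug or with a fixed anchor-drug dose plus five library-drug doses (not always all listed) in √10 steps, and nuclei were counted after 5 days.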

Erlotinib + Phenformin = compound: C#Cc1cccc(Nc2ncnc3cc(OCCOC)c(OCCOC)cc23)c1 [Erlotinib] + N=C(N)NC(=N)NCCc1ccccc1 [Phenformin] (partner 250 µM)
Procedure, shortened: as §1

AT9283 + OSI-027 = compound: O=C(Nc1c[nH]nc1-c1nc2ccc(CN3CCOCC3)cc2[nH]1)NC1CC1 [AT9283] + COc1cccc2cc(-c3nc([C@H]4CC[C@H](C(=O)O)CC4)n4ncnc(N)c34)[nH]c12 [OSI-027] (partner 0.5 µM)
Procedure, shortened: as §1

AT9283 + Phenformin = compound: O=C(Nc1c[nH]nc1-c1nc2ccc(CN3CCOCC3)cc2[nH]1)NC1CC1 [AT9283] + N=C(N)NC(=N)NCCc1ccccc1 [Phenformin] (partner 250 µM)
Procedure, shortened: as §1

Erlotinib + Luminespib = compound: C#Cc1cccc(Nc2ncnc3cc(OCCOC)c(OCCOC)cc23)c1 [Erlotinib] + CCNC(=O)c1noc(-c2cc(C(C)C)c(O)cc2O)c1-c1ccc(CN2CCOCC2)cc1 [Luminespib] (partner 0.01 µM)
Procedure, shortened: as §1

| Cell Line | relative viability (AT9283 + Pemetrexed; first compound 0.003 µM) | relative viability (AT9283 + Pemetrexed; first compound 0.03 µM) | relative viability (AT9283 + Pemetrexed; first compound 0.09487 µM) | relative viability (AT9283 + Pemetrexed; first compound 0.3 µM) | relative viability (Erlotinib + Phenformin; first compound 0.02 µM) | relative viability (Erlotinib + Phenformin; first compound 0.2 µM) | relative viability (Erlotinib + Phenformin; first compound 0.6325 µM) | relative viability (Erlotinib + Phenformin; first compound 2 µM) | relative viability (AT9283 + OSI-027; first compound 0.003 µM) | relative viability (AT9283 + OSI-027; first compound 0.03 µM) | relative viability (AT9283 + OSI-027; first compound 0.09487 µM) | relative viability (AT9283 + OSI-027; first compound 0.3 µM) | relative viability (AT9283 + Phenformin; first compound 0.003 µM) | relative viability (AT9283 + Phenformin; first compound 0.03 µM) | relative viability (AT9283 + Phenformin; first compound 0.09487 µM) | relative viability (AT9283 + Phenformin; first compound 0.3 µM) | relative viability (Erlotinib + Luminespib; first compound 0.02 µM) | relative viability (Erlotinib + Luminespib; first compound 0.2 µM) | relative viability (Erlotinib + Luminespib; first compound 0.6325 µM) | relative viability (Erlotinib + Luminespib; first compound 2 µM) |
| --- | --- | --- | --- | --- | --- | --- | --- | --- | --- | --- | --- | --- | --- | --- | --- | --- | --- | --- | --- | --- |
| NCI-H1915 | 0.547 | 0.431 | 0.326 | 0.254 | 0.398 | 0.378 | 0.383 | 0.35 | 0.619 | 0.619 | 0.239 | 0.196 | 0.362 | 0.342 | 0.174 | 0.168 | 0.819 | 0.777 | 0.908 | 0.725 |
| COR-L23 | 0.213 | 0.165 | 0.137 | 0.137 | 0.439 | 0.452 | 0.448 | 0.416 | 0.755 | 0.658 | 0.245 | 0.153 | 0.45 | 0.221 | 0.128 | 0.12 | 0.686 | 0.637 | 0.693 | 0.588 |
| NCI-H838 | 0.227 | 0.21 | 0.182 | 0.153 | 0.668 | 0.509 | 0.694 | 0.493 | 0.471 | 0.496 | 0.178 | 0.195 | 0.564 | 0.23 | 0.165 | 0.17 | 0.321 | 0.313 | 0.427 | 0.303 |
| BEN | 0.622 | 0.692 | 0.361 | 0.365 | 0.276 | 0.248 | 0.273 | 0.269 | 0.31 | 0.296 | 0.24 | 0.219 | 0.259 | 0.253 | 0.256 | 0.176 | 0.369 | 0.34 | 0.442 | 0.693 |
| NCI-H1563 | 0.751 | 0.66 | 0.559 | 0.513 | 0.63 | 0.602 | 0.708 | 0.6 | 0.769 | 0.748 | 0.645 | 0.525 | 0.638 | 0.663 | 0.605 | 0.556 | 0.527 | 0.495 | 0.512 | 0.477 |
| SW 1573 | 0.813 | 0.302 | 0.182 | 0.121 | 0.377 | 0.412 | 0.312 | 0.372 | 0.534 | 0.352 | 0.146 | 0.134 | 0.426 | 0.163 | 0.156 | 0.121 | 0.327 | 0.217 | 0.214 | 0.183 |
| NCI-H1975 | 0.295 | 0.282 | 0.27 | 0.276 | 0.415 | 0.377 | 0.405 | 0.38 | 0.726 | 0.706 | 0.671 | 0.344 | 0.418 | 0.403 | 0.356 | 0.183 | 0.222 | 0.157 | 0.169 | 0.306 |
| LXF-289 | 0.827 | 0.861 | 0.215 | 0.128 | 0.54 | – | 0.496 | 0.476 | 0.81 | 0.769 | 0.166 | 0.0735 | 0.528 | 0.447 | 0.0782 | 0.0825 | 0.813 | 0.622 | 0.707 | 0.634 |
| NCI-H1993 | 0.565 | 0.514 | 0.52 | 0.389 | 0.564 | 0.59 | 0.573 | 0.549 | 0.545 | 0.528 | 0.487 | 0.486 | 0.474 | 0.496 | 0.431 | 0.408 | 0.812 | 0.611 | 0.566 | 0.508 |
| NCI-H23 | 0.675 | 0.749 | 0.296 | 0.238 | – | 0.662 | 0.684 | 0.72 | 0.666 | 0.674 | 0.344 | 0.281 | 0.811 | 0.744 | 0.413 | 0.297 | 0.218 | – | 0.202 | 0.217 |
| NCI-H1650 | 0.358 | 0.362 | 0.361 | 0.28 | 0.4 | 0.263 | 0.411 | 0.274 | 0.838 | 0.575 | 0.357 | 0.227 | 0.491 | 0.385 | 0.223 | 0.175 | 0.218 | 0.188 | 0.206 | 0.21 |
| SK-MES-1 | 1.07 | 0.843 | 0.429 | 0.218 | 0.705 | 0.599 | 0.385 | 0.368 | 0.74 | 0.619 | 0.215 | 0.197 | 0.748 | 0.595 | 0.318 | 0.243 | 0.77 | 0.453 | 0.486 | 0.461 |
| NCI-H2023 | 0.214 | 0.199 | 0.126 | 0.102 | 0.435 | 0.418 | 0.471 | 0.378 | 0.389 | 0.456 | 0.148 | 0.104 | 0.448 | 0.389 | 0.193 | 0.131 | 0.721 | 0.72 | 0.81 | 0.629 |
| CAL-12T | 1.36 | 1.03 | 0.572 | 0.31 | 0.543 | 0.396 | 0.339 | 0.262 | 0.718 | 0.599 | 0.216 | 0.17 | 0.607 | 0.345 | 0.267 | 0.18 | 0.3 | 0.32 | 0.377 | 0.226 |
| LCLC-97TM1 | 0.19 | 0.134 | 0.0995 | 0.0907 | 0.405 | 0.412 | 0.439 | 0.379 | 0.539 | 0.288 | 0.0798 | 0.108 | 0.445 | 0.282 | 0.152 | 0.137 | 0.901 | 0.798 | 0.948 | 0.824 |
| NCI-H322M | 0.605 | 0.438 | 0.443 | 0.482 | 0.816 | 0.592 | 0.539 | 0.421 | 0.396 | 0.306 | 0.472 | 0.464 | 0.65 | 0.486 | 0.414 | 0.387 | 0.806 | 0.595 | 0.528 | 0.443 |
